Assay results: US12503446B2, “Bromodomain inhibitors” (FORSCHUNGSZENTRUM JÜLICH GMBH, priority 2019, dated 2025)

Assays:
Assay type in all cases: cell-based
[1] = system: AML cell line Molm-14; test: MTT assay, metabolic activity of Molm-14 cells; details: 1 μM, 72 h, DMSO control set to 100%
Procedure: All studies with the HEL, Molm-14 and K562 cell lines mentioned (sourced from DSMZ: ACC-11, ACC-10 and ACC-777) were conducted under germ-free conditions under a sterile hood. Incubation was effected at 37° C. in an incubator at a CO2 saturation of 5%. For the passage of the suspension cells, the cells were transferred in a Falcon prefilled with PBS (phosphate buffered saline) and centrifuged at 1200 rpm for 5 min. All three cell lines were cultured in RPMI-1640 medium (Gibco, Thermo Fischer Scientific, Darmstadt, Germany) with 10% FCS and 1% penicillin streptomycin.
The viability and metabolic activity of the cells were measured by the MTT assay. Yellow, water-soluble MTT (3-([…])-2,5-diphenyltetrazolium bromide) is a tetrazolium salt which is reduced to dark blue formazan in living cells. Insoluble formazan is released by addition of isopropanol-HCl, and its intensity can be determined by photometry at a wavelength of 550 nm. Thus, the proportion of living cells is measured by comparison with a particular control sample. The cells were counted and washed with PBS, and 30 000 cells per well were sown in triplicates in a 96-well plate. For the inhibitor treatment, the stated final concentrations were used. For this purpose, 10 µl of the appropriate inhibitor dilution was introduced into the 96-well plates, and then 90 μl of cell suspension was pipetted in. The plates were incubated in an incubator for 72 h (37° C., 5% CO2). After the incubation, 10 μl of MTT solution (5 mg/ml) was applied to the wells with a multichannel pipette and thoroughly resuspended. This was followed by incubation for 4 h in the dark at room temperature. Subsequently, the cells were resuspended in 100 μl of isopropanol-HCl and lysed, and absorption at a wavelength of 550 nm was measured by photometry with a plate reader (Kayto, RT-2100C).
The erythroleukaemia cell line HEL (JAK2V617F-positive), the AML cell line Molm-14 and the chronic myeloid leukaemia (CML) cell line K562 (BCR-ABL-positive) were used for cell experiments.
Compounds MF1-R, MF1-S, JHS1-R and JHS1-S were dissolved in DMSO, and each was used in concentrations of 0.1 μM, 1 μM, 10 μM and 20 μM. Correspondingly, DMSO was included in each case as a control treatment, and the metabolic activity thereof was set to 100%. The HEL, Molm-14 and K562 cell lines were treated with the respective compounds in the different concentrations and, after 72 h in culture, the metabolic activity, which gives information about the growth of the cells, was determined by means of MTT [3-(4,5-dimethylthiazol-2-yl)-2,5-diphenyltetrazolium bromide] assay.

[2] = system: Molm-14 cells; test: Proliferation assay, cell count after trypan blue staining, Molm-14; details: 1 or 5 μM, 24-72 h, by comparison with PFI-1
Procedure: Cell count and viability was determined after trypan blue staining. The appropriate concentrations of the inhibitors per ml of medium were added, or the correspondingly highest volume of DMSO was added as control group.
The cell growth described here is referred to as proliferation, and gives information as to the cell divisions that proceeded in the specified period.

[3] = system: PARP1 cleavage in Molm-14 cells; test: PARP1 cleavage Western blot (apoptosis), Molm-14; details: 5 μM
Procedure: Cell lysates were produced with RIPA lysis buffer (50 mM Tris pH 7.4, 150 mM sodium chloride, 1 mM EDTA, 1% Triton-X, 15% glycerol, 0.5% sodium deoxycholate, and protease/phosphatase inhibitors). Protein concentrations were determined by the Bradford Protein Assay using a Nanodrop Spectrometer (NanoDrop 2000/2000c system, Thermo Fisher Scientific, Darmstadt, Germany) at 595 nm. To 25 μg of protein lysates was added 4xLämmli sample buffer, followed by denaturing at 65° C. for 5 min and introduction into the SDS-Page. The proteins were transferred by the wet blot method in Towbin buffer (3 g Tris, 14.4 g glycine, 5% methanol per litre of ddH2O) to a PVDF membrane at 100 mA overnight. The membrane was blocked with 10% BSA in TBS-T buffer (20 mM Tris-HCl, pH 7.6, 137 mM NaCl, 0.05% IGEPAL). The primary antibodies were incubated at 4° C. overnight, and the HRP-labelled antibodies at room temperature with the membrane for […]. The proteins were detected by means of PCA-ECL solution using a chemiluminescence detector (Fusion SL, PeqLab).
In addition, a possible induction of apoptosis in the cell lines described by compound MF2 was examined. […] The cleavage of the PARP1 protein is an indicator of incipient apoptosis (cell death) of the cells, and the cleavage products of PARP1 were accordingly examined by Western blot. In detail, after the inhibitor treatment, cell lysates were produced with RIPA lysis buffer. Protein concentrations were determined with the Bradford protein assay using a Nanodrop Spectrometer at 595 nm. To 25 μg of the protein lysates was added 4×Lämmli sample buffer, followed by denaturing at 65° C. for 5 min and introduction into the SDS-Page. The proteins were transferred by the wet blot method to a PVDF membrane at 100 mA overnight. The membrane was blocked with 10% BSA in TBS-T buffer. The primary antibodies were incubated at 4° C. overnight, and the HRP-labelled antibodies at room temperature with the membrane for 45 min. The proteins were detected by means of PCA-ECL solution using a chemiluminescence detector (Fusion SL, PeqLab). […]

For CN1Cc2cc(N=[S@@](C)(=O)c3ccccc3)ccc2NC1=O [MF2-S, (S)—N-(3-methyl-2-oxo-1,2,3,4-tetrahydroquinazolin-6-yl)-S-methyl-S-phenylsulfoximine], the “metabolic activity of Molm-14 cells” value [1] was 55.19%±0.72, the “cell proliferation (cell count) of Molm-14” value [2] was “significantly reduced the cell proliferation” and the “uncleaved PARP1, Molm-14” value ([3]; 48 h) was “less uncleaved PARP1 was apparent”. The “band for the PARP1 cleavage product, Molm-14” value ([3]; 48 h, compared to PFI-1) was “same intensity” and the “induction of apoptosis, Molm-14” value ([3]; compared to MF2, MF2-R, PFI-1) was “induced apoptosis more strongly than the other compounds examined”.
